Patent publication US11773086B2, “Fungal modulators” (TRUSTEES OF BOSTON UNIVERSITY, priority 2020, dated 2023)

These compounds were tested on FLC-resistant Candida auris (assay: Checkerboard (dose-response matrix) with fluconazole, FICI). Conditions: fractional inhibitory concentration index for enhancement of FLC activity in FLC-resistant Candida auris; <0.5 strong synergy, 2 = no synergy.
Format: cell-based
Experimental: Generally, the synergy is measured by determining the fractional inhibitory concentration (FIC) value of the combination. […] FIC values for both agents in a particular square/well are calculated in this way followed by determination of the FIC index (sum of the FICs of each agent in the particular square/well).
Compound potency was assessed alone by dose response assays or in combination with another compound by dose-response matrixes in 96-well plates, or 384-well, flat-bottom, microtiter plates (Corning) as previously described. Plates were incubated at 30° C. for the indicated time period. Growth was quantified by measuring OD600 and corrected for medium background. All strains were assessed in biological duplicate experiments with technical duplicates. Growth was normalized to untreated controls and plotted as a heat map using Java TreeView 1.1.6r4. For dose-response matrixes fractional inhibitory concentration index at 90% growth inhibition (FICI90) was calculated as previously described. The fluconazole Etest susceptibility assay was performed as previously described. Briefly, 200 μL of 5×10^6 cells/mL were plated on YPD agar (1%) plates with either with 50 μM azoffluxin or containing DMSO.

`CC(C)C[C@@H](O)COc1cc2c(cc1C1(c3cc4c(cc3OC[C@H](O)CC(C)C)OCO4)C(=O)Nc3cc(F)ccc31)OCO2` [CMLD012393, 6-fluoro-3,3-bis(6-(((R)-2-hydroxy-4-methylpentyl)oxy)benzo[d][1,3]dioxol-5-yl)indolin-2-one] and `CC(C)C[C@@H](O)COc1cc2c(cc1C1(c3cc4c(cc3OC[C@H](O)CC(C)C)OCO4)C(=O)Nc3ccc(F)cc31)OCO2` [CMLD013622, 5-fluoro-3,3-bis(6-(((R)-2-hydroxy-4-methylpentyl)oxy)benzo[d][1,3]dioxol-5-yl)indolin-2-one] are the same in FICI: 0.130 for the first, 0.130 for the second.

First: CC[C@@H](O)COc1cc2c(cc1C1(c3cc4c(cc3OC[C@H](O)CC)OCO4)C(=O)Nc3cc(F)ccc31)OCO2 [CMLD012394, 6-fluoro-3,3-bis(6-((R)-2-hydroxybutoxy)benzo[d][1,3]dioxol-5-yl)indolin-2-one]
Second: CCC[C@@H](O)COc1cc2c(cc1C1(c3cc4c(cc3OC[C@H](O)CCC)OCO4)C(=O)Nc3cc(F)ccc31)OCO2 [CMLD012439, 6-fluoro-3,3-bis(6-(((R)-2-hydroxypentyl)oxy)benzo[d][1,3]dioxol-5-yl)indolin-2-one]
The FICI of the first is higher: 0.266 for the first, 0.130 for the second.

Going from `CC[C@@H](O)COc1cc2c(cc1C1(c3cc4c(cc3OC[C@H](O)CC)OCO4)C(=O)Nc3c(F)cccc31)OCO2` [CMLD012399, 7-fluoro-3,3-bis(6-((R)-2-hydroxybutoxy)benzo[d][1,3]dioxol-5-yl)indolin-2-one] to `CCC[C@@H](O)COc1cc2c(cc1C1(c3cc4c(cc3OC[C@H](O)CCC)OCO4)C(=O)Nc3c(F)cccc31)OCO2` [CMLD012440, 7-fluoro-3,3-bis(6-(((R)-2-hydroxypentyl)oxy)benzo[d][1,3]dioxol-5-yl)indolin-2-one], the FICI falls from 0.500 to 0.058.

Compared with `C=CC[C@@H](O)COc1cc2c(cc1C1(c3cc4c(cc3OC[C@H](O)CC=C)OCO4)C(=O)Nc3cc(F)ccc31)OCO2` [CMLD012400, 6-fluoro-3,3-bis(6-(((R)-2-hydroxypent-4-en-1-yl)oxy)benzo[d][1,3]dioxol-5-yl)indolin-2-one], `C=CC[C@@H](O)COc1cc2c(cc1C1(c3cc4c(cc3OC[C@H](O)CC=C)OCO4)C(=O)Nc3c(F)cccc31)OCO2` [CMLD012402, 7-fluoro-3,3-bis(6-(((R)-2-hydroxypent-4-en-1-yl)oxy)benzo[d][1,3]dioxol-5-yl)indolin-2-one] is lower in FICI: 0.130 for the first, 0.113 for the second.

Compared with `C=C(C)C[C@@H](O)COc1cc2c(cc1C1(c3cc4c(cc3OC[C@H](O)CC(=C)C)OCO4)C(=O)Nc3c(F)cccc31)OCO2` [CMLD012436, 7-fluoro-3,3-bis(6-(((R)-2-hydroxy-4-methylpent-4-en-1-yl)oxy)benzo[d][1,3]dioxol-5-yl)indolin-2-one], `CC(C)C[C@@H](O)COc1cc2c(cc1C1(c3cc4c(cc3OC[C@H](O)CC(C)C)OCO4)C(=O)Nc3c(F)cccc31)OCO2` [CMLD013623, 7-fluoro-3,3-bis(6-(((R)-2-hydroxy-4-methylpentyl)oxy)benzo[d][1,3]dioxol-5-yl)indolin-2-one] is lower in FICI: 0.175 for the first, 0.036 for the second.

`CC(C)(C)C[C@@H](O)COc1cc2c(cc1C1(c3cc4c(cc3OC[C@H](O)CC(C)(C)C)OCO4)C(=O)Nc3cc(F)ccc31)OCO2` [CMLD012443, 6-fluoro-3,3-bis(6-(((R)-2-hydroxy-4,4-dimethylpentyl)oxy)benzo[d][1,3]dioxol-5-yl)indolin-2-one] and `CC(C)(C)C[C@@H](O)COc1cc2c(cc1C1(c3cc4c(cc3OC[C@H](O)CC(C)(C)C)OCO4)C(=O)Nc3ccc(F)cc31)OCO2` [CMLD012444, 5-fluoro-3,3-bis(6-(((R)-2-hydroxy-4,4-dimethylpentyl)oxy)benzo[d][1,3]dioxol-5-yl)indolin-2-one] are the same in FICI: 0.068 for the first, 0.068 for the second.

First: CC(C)(C)C[C@@H](O)COc1cc2c(cc1C1(c3cc4c(cc3OC[C@H](O)CC(C)(C)C)OCO4)C(=O)Nc3cc(Br)ccc31)OCO2 [CMLD012446, 6-bromo-3,3-bis(6-(((R)-2-hydroxy-4,4-dimethylpentyl)oxy)benzo[d][1,3]dioxol-5-yl)indolin-2-one]
Second: CC(C)(C)C[C@@H](O)COc1cc2c(cc1C1(c3cc4c(cc3OC[C@H](O)CC(C)(C)C)OCO4)C(=O)Nc3ccc(Br)cc31)OCO2 [CMLD013652, 5-bromo-3,3-bis(6-(((2R)-2-hydroxy-4,4-dimethylpentyl)oxy)-2H-1,3-benzodioxol-5-yl)-2,3-dihydro-1H-indol-2-one]
The FICI of the first is lower: 0.068 for the first, 0.175 for the second.

First: C=CCC[C@@H](O)COc1cc2c(cc1C1(c3cc4c(cc3OC[C@H](O)CCC=C)OCO4)C(=O)Nc3cc(F)ccc31)OCO2 [CMLD012447, 6-fluoro-3,3-bis(6-(((R)-2-hydroxyhex-5-en-1-yl)oxy)benzo[d][1,3]dioxol-5-yl)indolin-2-one]
Second: C=CCC[C@@H](O)COc1cc2c(cc1C1(c3cc4c(cc3OC[C@H](O)CCC=C)OCO4)C(=O)Nc3ccc(F)cc31)OCO2 [CMLD012450, 5-fluoro-3,3-bis(6-(((R)-2-hydroxyhex-5-en-1-yl)oxy)benzo[d][1,3]dioxol-5-yl)indolin-2-one]
The FICI of the first is lower: 0.130 for the first, 0.266 for the second.

Going from `C=CCC[C@@H](O)COc1cc2c(cc1C1(c3cc4c(cc3OC[C@H](O)CCC=C)OCO4)C(=O)Nc3c(F)cccc31)OCO2` [CMLD012449, 7-fluoro-3,3-bis(6-(((R)-2-hydroxyhex-5-en-1-yl)oxy)benzo[d][1,3]dioxol-5-yl)indolin-2-one] to `C=CCC[C@@H](O)COc1cc2c(cc1C1(c3cc4c(cc3OC[C@H](O)CCC=C)OCO4)C(=O)Nc3cc(Br)ccc31)OCO2` [CMLD012452, 6-bromo-3,3-bis(6-(((R)-2-hydroxyhex-5-en-1-yl)oxy)benzo[d][1,3]dioxol-5-yl)indolin-2-one], the FICI rises from 0.113 to 0.266.

First: C=CCC[C@@H](O)COc1cc2c(cc1C1(c3cc4c(cc3OC[C@H](O)CCC=C)OCO4)C(=O)Nc3cccc(Br)c31)OCO2 [CMLD012453, 4-bromo-3,3-bis(6-(((R)-2-hydroxyhex-5-en-1-yl)oxy)benzo[d][1,3]dioxol-5-yl)indolin-2-one]
Second: CCC[C@@H](O)COc1cc2c(cc1C1(c3cc4c(cc3OC[C@H](O)CCC)OCO4)C(=O)Nc3ccc(F)cc31)OCO2 [CMLD013619, 5-fluoro-3,3-bis(6-(((R)-2-hydroxypentyl)oxy)benzo[d][1,3]dioxol-5-yl)indolin-2-one]
The FICI of the first is higher: 0.257 for the first, 0.255 for the second.

First: CC(C)(C)C[C@@H](O)COc1cc2c(cc1C1(c3cc4c(cc3OC[C@H](O)CC(C)(C)C)OCO4)C(=O)Nc3c(F)cccc31)OCO2 [CMLD013624, 7-fluoro-3,3-bis(6-(((R)-2-hydroxy-4,4-dimethylpentyl)oxy)benzo[d][1,3]dioxol-5-yl)indolin-2-one]
Second: CCC[C@@H](O)COc1cc2c(cc1C1(c3cc4c(cc3OCC)OCO4)C(=O)Nc3c(F)cccc31)OCO2 (stereo partly drawn) [CMLD013655, 3-(6-ethoxy-2H-1,3-benzodioxol-5-yl)-7-fluoro-3-(6-(((2R)-2-hydroxypentyl)oxy)-2H-1,3-benzodioxol-5-yl)-2,3-dihydro-1H-indol-2-one]
The FICI of the first is lower: 0.068 for the first, 0.113 for the second.

`CC(C)C[C@@H](O)COc1cc2c(cc1C1(c3cc4c(cc3OC[C@H](O)CC(C)C)OCCO4)C(=O)Nc3cc(F)ccc31)OCCO2` [CMLD013648, 6-fluoro-3,3-bis(7-(((2R)-2-hydroxy-4-methylpentyl)oxy)-2,3-dihydro-1,4-benzodioxin-6-yl)-2,3-dihydro-1H-indol-2-one] and `CC(C)C[C@@H](O)COc1cc2c(cc1C1(c3cc4c(cc3OC[C@H](O)CC(C)C)OCCO4)C(=O)Nc3c(F)cccc31)OCCO2` [CMLD013654, 7-fluoro-3,3-bis(7-(((2R)-2-hydroxy-4-methylpentyl)oxy)-2,3-dihydro-1,4-benzodioxin-6-yl)-2,3-dihydro-1H-indol-2-one] are the same in FICI: 0.255 for the first, 0.255 for the second.

Going from `CC(C)C[C@@H](O)COc1cc2c(cc1C1(c3cc4c(cc3OC[C@H](O)CC(C)C)OCO4)C(=O)Nc3ccc(Br)cc31)OCO2` [CMLD013650, 5-bromo-3,3-bis(6-(((2R)-2-hydroxy-4-methylpentyl)oxy)-2H-1,3-benzodioxol-5-yl)-2,3-dihydro-1H-indol-2-one] to `CC(C)C[C@@H](O)COc1cc2c(cc1C1(c3cc4c(cc3OC[C@H](O)CC(C)C)OCO4)C(=O)Nc3cc(Br)ccc31)OCO2` [CMLD013651, 6-bromo-3,3-bis(6-(((2R)-2-hydroxy-4-methylpentyl)oxy)-2H-1,3-benzodioxol-5-yl)-2,3-dihydro-1H-indol-2-one], the FICI falls from 0.300 to 0.130.

First: O=C1Nc2ccccc2C1(c1ccc(O)cc1)c1ccc(O)cc1 [Oxyphenisatin, oxyphenisatin, reference compound]
Second: C=C(C)C[C@@H](O)COc1cc2c(cc1C1(c3cc4c(cc3OCC)OCO4)C(=O)Nc3cc(F)ccc31)OCO2 (stereo partly drawn) [RT-162S-015, 3-(6-ethoxybenzo[d][1,3]dioxol-5-yl)-6-fluoro-3-(6-(((R)-2-hydroxy-4-methylpent-4-en-1-yl)oxy)benzo[d][1,3]dioxol-5-yl)indolin-2-one]
The FICI of the first is higher: 2 for the first, 0.133 for the second.
